The text below walks through data of ChEMBL document CHEMBL1201862, “PubChem BioAssay data set” (2004).

Each structure is given as a SMILES string.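 Five compound concentrations were applied to cells in 96-well plates for 48 hours; endpoints were derived by simple linear interpolation of the resulting dose-response curve. GI50 = concentration required for 50% inhibition of growth.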 Calls of active or inactive are those of the source. No stated cut-off is given here; in the data, active = GI50 up to about 1.1 µM and inactive = higher. A value given as a limit tells only on which side of the number the result lay.

Some test systems named below: HCC 2998; M14; NCI-H226; SNB-19; IGROV-1; PC-3; COLO 205; TK-10; SN12C; SF-295; SK-MEL-28; MOLT-4; A549; EKVX; SNB-75; DU-145; SF-268; HCT-116.
Common to all, as to assay: NCI-60 cell line screen, 48 h

`CC1OC(OC2C(OC(=O)[C@]34CCC(C)(C)C[C@H]3C3=CC[C@@H]5[C@@]6(C)CC[C@H](OC7OC(CO)C(O)C(O)C7OC7OC(CO)C(O)C(O)C7O)C(C)(C)[C@@H]6CC[C@@]5(C)[C@]3(C)CC4)OCC(O)C2O)C(O)C(OC2OCC(O)C(O)C2O)C1OC1OCC(O)C(OC2OCC(O)C(O)C2O)C1O` (stereo partly drawn): the GI50 in the assay with HCC 2998 is 2.14 µM (inactive); with M14, 2.42 µM (inactive); in the assay on NCI-H226, 7.05 µM (inactive); with SNB-19, 16.7 µM (inactive); in the assay with IGROV-1, 19.1 µM (inactive); in the assay on PC-3, 11.8 µM (inactive). The GI50 is 2.77 µM (inactive) with COLO 205; 13.4 µM (inactive) with TK-10; 2.26 µM (inactive) with SN12C; 7.62 µM (inactive) with SF-295; 2.37 µM (inactive) in the assay on SK-MEL-28; 13.2 µM (inactive) in the assay with MOLT-4. Also, the GI50 with A549 was 3.7 µM (inactive); in the assay with EKVX, 4.34 µM (inactive); in the assay on SNB-75 it was 18.7 µM (inactive); in the assay with DU-145, 10.5 µM (inactive); with SF-268, 9.51 µM (inactive); in the assay with HCT-116 it was 8.97 µM (inactive).
On to `CCC/C(Cl)=N/OC(=O)Nc1cc(C(F)(F)F)ccc1OC`, for which the GI50 is 16.9 µM (inactive) with HCC 2998; 4.4 µM (inactive) in the assay on M14; 15.5 µM (inactive) with NCI-H226; 17.6 µM (inactive) in the assay on SNB-19; 16.6 µM (inactive) in the assay on IGROV-1; 16.2 µM (inactive) in the assay on PC-3. Moreover, the GI50 with COLO 205 is 1.95 µM (inactive); with TK-10, 18.5 µM (inactive); in the assay with SN12C it was 14.3 µM (inactive); in the assay on SF-295 it was 18.3 µM (inactive); with SK-MEL-28, 14.5 µM (inactive); with MOLT-4 it was 2.1 µM (inactive). In addition, the GI50 was 19.5 µM (inactive) with A549; 7.24 µM (inactive) in the assay on EKVX; 15.1 µM (inactive) in the assay with SNB-75; 16.3 µM (inactive) in the assay with DU-145; 16.1 µM (inactive) with SF-268; 9.89 µM (inactive) in the assay on HCT-116.
With `CNc1ccc([N+](=O)[O-])cc1C(=O)N1CCC[C@H]1CO`, the GI50 with HCC 2998 was > 100 µM (inactive); in the assay on M14 it was > 100 µM (inactive); in the assay with NCI-H226, 19.5 µM (inactive); in the assay with SNB-19 it was > 100 µM (inactive); in the assay with IGROV-1 it was > 100 µM (inactive); in the assay on PC-3, > 100 µM (inactive). The GI50 with COLO 205, in the assay with TK-10, in the assay on SN12C, in the assay on SF-295, in the assay on SK-MEL-28 and in the assay on MOLT-4 was > 100 µM (inactive) throughout. Also, the GI50 in the assay on A549, with EKVX, in the assay on SNB-75, in the assay on DU-145, in the assay on SF-268 and in the assay on HCT-116 was > 100 µM (inactive) throughout.
For `c1ccc2c(c1)nc1n2CNCC1`, the GI50 was > 100 µM (inactive) in the assay on HCC 2998; > 100 µM (inactive) in the assay with M14; > 100 µM (inactive) in the assay on NCI-H226; > 100 µM (inactive) in the assay with SNB-19; 94 µM (inactive) with IGROV-1; > 100 µM (inactive) in the assay on PC-3. Moreover, the GI50 in the assay on COLO 205 was > 100 µM (inactive); with TK-10 it was > 100 µM (inactive); in the assay on SN12C it was > 100 µM (inactive); in the assay on SF-295, > 100 µM (inactive); with SK-MEL-28, 48.3 µM (inactive); in the assay on MOLT-4, 43.3 µM (inactive). Further, the GI50 was > 100 µM (inactive) in the assay on A549; > 100 µM (inactive) in the assay with EKVX; 90.8 µM (inactive) in the assay on SNB-75; 43.3 µM (inactive) in the assay with DU-145; > 100 µM (inactive) with SF-268; 43.2 µM (inactive) with HCT-116.
As for `COC(=O)c1ccc2c(c1)CC1(C2)Cc2ccccc2C1=O` (stereo not drawn), the GI50 with HCC 2998 was 54.5 µM (inactive); in the assay on M14, 18.7 µM (inactive); with NCI-H226, 15.1 µM (inactive); in the assay on SNB-19, 66.1 µM (inactive); with IGROV-1 it was 33.3 µM (inactive); in the assay on PC-3, 42.8 µM (inactive). Moreover, the GI50 in the assay on COLO 205 was 18 µM (inactive); in the assay on TK-10, 31 µM (inactive); in the assay on SN12C it was 25.9 µM (inactive); with SF-295, 39.4 µM (inactive); in the assay on SK-MEL-28, 14.8 µM (inactive); in the assay with MOLT-4, 15.4 µM (inactive). Besides, the GI50 in the assay with A549 is 53.1 µM (inactive); in the assay with EKVX, 29.5 µM (inactive); in the assay on SNB-75, 24.3 µM (inactive); in the assay with DU-145, 36.3 µM (inactive); in the assay on SF-268 it was 35 µM (inactive); with HCT-116 it was 23.8 µM (inactive).
As for `FC(F)(F)c1ccc2c(c1)nc(Cc1ccc(Cl)cc1)n2CC1CCCN2CCCCC12` (stereo not drawn), the GI50 in the assay on HCC 2998 was 2.11 µM (inactive); with M14, 2.07 µM (inactive); in the assay with NCI-H226 it was 11.9 µM (inactive); with SNB-19, 14 µM (inactive); with IGROV-1 it was 10.4 µM (inactive); in the assay on PC-3, 8.65 µM (inactive). In addition, the GI50 is 3.96 µM (inactive) with COLO 205; 12.2 µM (inactive) in the assay on TK-10; 9.79 µM (inactive) in the assay on SN12C; 10.5 µM (inactive) in the assay on SF-295; 2.52 µM (inactive) in the assay on SK-MEL-28; 3.18 µM (inactive) with MOLT-4. The GI50 with A549 was 12.6 µM (inactive); in the assay on EKVX, 11.1 µM (inactive); in the assay on SNB-75, 1.59 µM (inactive); in the assay on DU-145 it was 10 µM (inactive); with SF-268 it was 5.07 µM (inactive); in the assay with HCT-116 it was 6.35 µM (inactive).
For the compound `C/C(=N/NC(=S)Nc1ccccc1C)c1ccccn1`, the GI50 with HCC 2998 is 6.27 µM (inactive); in the assay with M14, < 0.0258 µM (active); with NCI-H226, 0.075 µM (active); in the assay with SNB-19, 2.43 µM (inactive); in the assay on IGROV-1, < 0.0182 µM (active); with PC-3, < 0.0153 µM (active). The GI50 with COLO 205 was < 0.0196 µM (active); in the assay with TK-10, 0.259 µM (active); with SN12C, 0.269 µM (active); in the assay with SF-295, 0.175 µM (active); in the assay with SK-MEL-28, 1.08 µM (active); in the assay with MOLT-4 it was 0.0175 µM (active). The GI50 in the assay on A549 was 0.0855 µM (active); in the assay with EKVX it was 0.167 µM (active); in the assay on SNB-75 it was 0.583 µM (active); in the assay on DU-145, 1.63 µM (inactive); in the assay with SF-268 it was 0.14 µM (active); in the assay on HCT-116 it was < 0.0152 µM (active).
Take `CCCCCCCCCc1cc(O)c(O)cc1CCCCCCCCC`: the GI50 in the assay on HCC 2998, in the assay with M14, with NCI-H226, in the assay with SNB-19, in the assay with IGROV-1 and with PC-3 was > 10 µM (inactive) each time. In addition, the GI50 in the assay with COLO 205, with TK-10, in the assay with SN12C, with SF-295, with SK-MEL-28 and in the assay with MOLT-4 was > 10 µM (inactive) throughout. The GI50 in the assay on A549, in the assay on EKVX, with SNB-75, with DU-145, in the assay with SF-268 and in the assay on HCT-116 was > 10 µM (inactive) throughout.
As to `[O-]/[N+](=C\c1ccccc1OC(=S)S)c1ccc(Cl)cc1`, the GI50 in the assay with HCC 2998 was 45.3 µM (inactive); in the assay with M14 it was 24.2 µM (inactive); in the assay with NCI-H226 it was 48.4 µM (inactive); in the assay on SNB-19, 83.4 µM (inactive); in the assay with IGROV-1, 12.1 µM (inactive); in the assay on PC-3, 23.9 µM (inactive). The GI50 in the assay with COLO 205 was 3.92 µM (inactive); with TK-10 it was > 100 µM (inactive); in the assay on SN12C it was 24.8 µM (inactive); with SF-295, 0.177 µM (active); in the assay on SK-MEL-28 it was 3.57 µM (inactive); in the assay with MOLT-4 it was 5.46 µM (inactive). Moreover, the GI50 with A549 is > 100 µM (inactive); in the assay with EKVX, 25.7 µM (inactive); with SNB-75 it was > 100 µM (inactive); in the assay with DU-145, 42.9 µM (inactive); in the assay with SF-268, 19.5 µM (inactive); with HCT-116, 10.1 µM (inactive).
As to `CC(=O)Oc1c(C)c2c(c3ccccc13)OC(C)(C)C2`, the GI50 in the assay on HCC 2998 is 16.5 µM (inactive); in the assay on M14, 16.4 µM (inactive); in the assay on NCI-H226, 22 µM (inactive); in the assay on SNB-19, 26.3 µM (inactive); in the assay on IGROV-1, 17.2 µM (inactive); in the assay on PC-3, 22.6 µM (inactive). For the same compound, the GI50 with COLO 205 was 20.3 µM (inactive); in the assay on TK-10 it was 18.6 µM (inactive); in the assay on SN12C, 18.6 µM (inactive); in the assay with SF-295, 17 µM (inactive); in the assay on SK-MEL-28, 18.8 µM (inactive); in the assay with MOLT-4, 15.1 µM (inactive). Moreover, the GI50 in the assay with A549 is 18.1 µM (inactive); with EKVX it was 19.8 µM (inactive); with SNB-75, 19 µM (inactive); with DU-145, 17.3 µM (inactive); in the assay on SF-268, 15.5 µM (inactive); with HCT-116, 18 µM (inactive).
For the compound `COC1/C=C/C(C)C(C(C)C(OC)C(C)CCC(=O)C(C)C(CCC(=O)O)OC)OC(=O)/C=C/C=C(\C)CC(OC)CC2=CC(=O)O[C@@H](C(C)C(OC)CC(OC)/C=C/C(C)C(OC)C1)[C@H]2O` (stereo partly drawn), the GI50 in the assay with HCC 2998 was 0.353 µM (active); with M14, 0.63 µM (active); with NCI-H226, 0.695 µM (active); with SNB-19, 0.679 µM (active); in the assay on IGROV-1 it was 0.177 µM (active); in the assay with PC-3, 0.454 µM (active). In addition, the GI50 is 0.125 µM (active) with COLO 205; 1.65 µM (inactive) with TK-10; 0.733 µM (active) in the assay on SN12C; 0.859 µM (active) in the assay with SF-295; 0.792 µM (active) with SK-MEL-28; 0.467 µM (active) in the assay on MOLT-4. In addition, the GI50 was 0.332 µM (active) in the assay with A549; 2.22 µM (inactive) with EKVX; 0.16 µM (active) in the assay with SNB-75; 1.71 µM (inactive) with DU-145; 0.284 µM (active) in the assay with SF-268; 0.385 µM (active) in the assay on HCT-116.
